{"source": "patent US9340535B2", "about": "“N-[5-(Aminosulfony1)-4-methyl-1,3-thiazol-2-yl]-N-methyl-2-[4-(2-pyridinyl)phenyl]acetamide mesylate monohydrate” (AiCuris GmbH & Co. KG, priority 2011, dated 2016)", "key": {"[1]": {"assay": "Thermal analysis and polymorphic stability (DSC, TGA)", "format": "physicochemical", "conditions": "for DSC: Differential Scanning Calorimetry; for TGA: Thermogravimetric Analysis", "protocol": "Polymorphism refers to the ability of a solid material to exist in more than one crystal structure or solid form.\nUpon mild heating (about 50° C. to 60° C.), the water content is reduced which would make these salts and the free base form extremely difficult to handle and to process during production and formulation. In contrast the hydrate of the mono mesylate salt is thermally stable and polymorphic stable at much higher temperatures of considerably above 100° C. as judged by TGA.\nMoreover, exactly one mol equivalent water is incorporated into the crystal structure wherein the hydrogen atoms of the water molecule form hydrogen bridges with oxygen atoms of two different mesylate molecules. This well-defined position in the crystal lattice (see FIG. 3) is verified by the fact that water is released from the crystal only at high temperature, starting at 160° C."}, "[2]": {"assay": "Crystallinity by X-ray diffraction, microscopy", "format": "physicochemical", "conditions": "for Crystallinity: X-ray diffraction, microscopy"}, "[3]": {"assay": "Water solubility, solubility screening", "conditions": "for Water solubility: Solubility screening"}, "[4]": {"assay": "Stability to decomposition: storage at 90° C. for one week"}, "[5]": {"assay": "Stability to dissociation: stirring for one week at room temperature"}, "[6]": {"assay": "Exposure in repeated dose 13-week toxicity study (free base)", "conditions": "rat, in vivo, rats; for AUC(0-t): read-out: AUC(0-24)", "procedure": "The exposure of rats to N-[5-(aminosulfonyl)-4-methyl-1,3-thiazol-2-yl]-N-methyl-2-[4-(2-pyridinyl)phenyl]acetamide in a repeated dose 13-week toxicity study performed with the free base N-[5-(aminosulfonyl)-4-methyl-1,3-thiazol-2-yl]-N-methyl-2-[4-(2-pyridinyl)phenyl]acetamide (free base) was compared to the exposures observed in a 26-week repeated dose toxicity study performed with the mesylate monohydrate. In both studies, the test items were administered as 0.5% (w/v) tylose suspensions, and the concentrations were adjusted to the equivalents of free base N-[5-(aminosulfonyl)-4-methyl-1,3-thiazol-2-yl]-N-methyl-2-[4-(2-pyridinyl)phenyl]acetamide."}, "[7]": {"conditions": "female, 10 mg/kg/day, F, 10 mg/kg/day, day 1, 13-week toxicity study"}, "[8]": {"conditions": "female, 50 mg/kg/day, F, 50 mg/kg/day, day 1, 13-week toxicity study"}, "[9]": {"conditions": "female, 250 mg/kg/day, F, 250 mg/kg/day, day 1, 13-week toxicity study"}, "[10]": {"conditions": "male, 10 mg/kg/day, M, 10 mg/kg/day, day 1, 13-week toxicity study"}, "[11]": {"conditions": "male, 50 mg/kg/day, M, 50 mg/kg/day, day 1, 13-week toxicity study"}, "[12]": {"conditions": "male, 250 mg/kg/day, M, 250 mg/kg/day, day 1, 13-week toxicity study"}}, "note": "Read-outs that look alike come from different tables or passages of the source."}
{"compound": "Cc1nc(N(C)C(=O)Cc2ccc(-c3ccccn3)cc2)sc1S(N)(=O)=O.Cl", "note": "[1xHCl]", "values": [{"measurement": "Thermal and polymorphic stability of hydrates (in words)", "setting": "[1]", "value": "low thermal and low polymorphic stability"}, {"measurement": "Thermal stability of hydrate", "setting": "[1]", "value": "labile"}, {"measurement": "DSC", "setting": "[1]", "value": "loss of water before melting"}, {"measurement": "TGA", "setting": "[1]", "value": 2.1, "unit": "%"}, {"measurement": "Crystallinity of the hydrate during storage", "setting": "[2]; during storage", "value": "decrease of crystallinity"}, {"measurement": "Water solubility", "setting": "[3]", "value": 39.4, "unit": "mg/100 mL"}, {"measurement": "Stability to decomposition", "setting": "[4]", "value": "++"}, {"measurement": "Stability to dissociation", "setting": "[5]", "value": "++"}]}
{"compound": "Cc1ccc(S(=O)(=O)O)cc1.Cc1nc(N(C)C(=O)Cc2ccc(-c3ccccn3)cc2)sc1S(N)(=O)=O", "note": "[1xTsOH]", "values": [{"measurement": "Thermal stability of hydrate", "setting": "[1]", "value": "labile"}, {"measurement": "DSC", "setting": "[1]", "value": "loss of water before melting"}, {"measurement": "TGA", "setting": "[1]", "value": 5.9, "unit": "%"}, {"measurement": "Thermal and polymorphic stability of hydrates (in words)", "setting": "[1]; listed as monotosylate", "value": "low thermal stability"}, {"measurement": "Thermal and polymorphic stability of hydrates (in words)", "setting": "[1]; listed as tosylate", "value": "low thermal and low polymorphic stability"}, {"measurement": "Crystallinity", "setting": "[2]", "value": "+"}, {"measurement": "Water solubility", "setting": "[3]", "value": 50, "unit": "mg/100 mL"}, {"measurement": "Stability to decomposition", "setting": "[4]", "value": "−"}, {"measurement": "Stability to dissociation", "setting": "[5]", "value": "++"}]}
{"compound": "Cc1nc(N(C)C(=O)Cc2ccc(-c3ccccn3)cc2)sc1S(N)(=O)=O", "note": "[Free base, N-[5-(aminosulfonyl)-4-methyl-1,3-thiazol-2-yl]-N-methyl-2-[4-(2-pyridinyl)phenyl]acetamide]", "values": [{"measurement": "Thermal and polymorphic stability of hydrates (in words)", "setting": "[1]", "value": "low thermal stability"}, {"measurement": "Thermal stability of hydrate", "setting": "[1]", "value": "labile"}, {"measurement": "DSC", "setting": "[1]", "value": "loss of water before melting"}, {"measurement": "TGA", "setting": "[1]", "value": 8.8, "unit": "%"}, {"measurement": "Thermal and polymorphic stability of hydrates (in words)", "setting": "[1]; listed as free base form", "value": "low thermal and low polymorphic stability"}, {"measurement": "Crystallinity", "setting": "[2]", "value": "+"}, {"measurement": "Cmax", "setting": "[6]; [7]", "value": 15300, "unit": "ng/mL"}, {"measurement": "AUC(0-t)", "setting": "[6]; [7]", "value": 159, "unit": "µg·h/mL"}, {"measurement": "AUC(0-t)", "setting": "[6]; female, 10 mg/kg/day, F, 10 mg/kg/day, week 13, 13-week toxicity study", "value": 211, "unit": "µg·h/mL"}, {"measurement": "Cmax", "setting": "[6]; female, 10 mg/kg/day, F, week 13, 13-week toxicity study", "value": 25800, "unit": "ng/mL"}, {"measurement": "Cmax", "setting": "[6]; [8]", "value": 35300, "unit": "ng/mL"}, {"measurement": "AUC(0-t)", "setting": "[6]; [8]", "value": 409, "unit": "µg·h/mL"}, {"measurement": "AUC(0-t)", "setting": "[6]; female, 50 mg/kg/day, F, 50 mg/kg/day, week 13, 13-week toxicity study", "value": 455, "unit": "µg·h/mL"}, {"measurement": "Cmax", "setting": "[6]; female, 50 mg/kg/day, F, week 13, 13-week toxicity study", "value": 40500, "unit": "ng/mL"}, {"measurement": "Cmax", "setting": "[6]; [9]", "value": 68900, "unit": "ng/mL"}, {"measurement": "AUC(0-t)", "setting": "[6]; [9]", "value": 966, "unit": "µg·h/mL"}, {"measurement": "AUC(0-t)", "setting": "[6]; female, 250 mg/kg/day, F, 250 mg/kg/day, week 13, 13-week toxicity study", "value": 1170, "unit": "µg·h/mL"}, {"measurement": "Cmax", "setting": "[6]; female, 250 mg/kg/day, F, week 13, 13-week toxicity study", "value": 83000, "unit": "ng/mL"}, {"measurement": "Cmax", "setting": "[6]; [10]", "value": 13300, "unit": "ng/mL"}, {"measurement": "AUC(0-t)", "setting": "[6]; [10]", "value": 87.9, "unit": "µg·h/mL"}, {"measurement": "AUC(0-t)", "setting": "[6]; male, 10 mg/kg/day, M, 10 mg/kg/day, week 13, 13-week toxicity study", "value": 133, "unit": "µg·h/mL"}, {"measurement": "Cmax", "setting": "[6]; male, 10 mg/kg/day, M, week 13, 13-week toxicity study", "value": 15000, "unit": "ng/mL"}, {"measurement": "Cmax", "setting": "[6]; [11]", "value": 30600, "unit": "ng/mL"}, {"measurement": "AUC(0-t)", "setting": "[6]; [11]", "value": 248, "unit": "µg·h/mL"}, {"measurement": "AUC(0-t)", "setting": "[6]; male, 50 mg/kg/day, M, 50 mg/kg/day, week 13, 13-week toxicity study", "value": 332, "unit": "µg·h/mL"}, {"measurement": "Cmax", "setting": "[6]; male, 50 mg/kg/day, M, week 13, 13-week toxicity study", "value": 30000, "unit": "ng/mL"}, {"measurement": "Cmax", "setting": "[6]; [12]", "value": 53900, "unit": "ng/mL"}, {"measurement": "AUC(0-t)", "setting": "[6]; [12]", "value": 567, "unit": "µg·h/mL"}, {"measurement": "AUC(0-t)", "setting": "[6]; male, 250 mg/kg/day, M, 250 mg/kg/day, week 13, 13-week toxicity study", "value": 661, "unit": "µg·h/mL"}, {"measurement": "Cmax", "setting": "[6]; male, 250 mg/kg/day, M, week 13, 13-week toxicity study", "value": 62800, "unit": "ng/mL"}, {"measurement": "solubility", "setting": "[3]; water", "value": 2, "unit": "µg/mL"}, {"measurement": "Stability to decomposition", "setting": "[4]", "value": "++"}]}
